*1 amine or outer side, *2 acyl side, *3 side chain or, on linkers, in order; H or OH if unused. Where a SMILES comes first, the peptide text is derived from it. Bridges are numbered along the chain shown (N, C = ends). [ ]: non-standard residue; d: D form. The star is where a group is joined. ξ: configuration not given here. Thr(3ξ) = CC(O)[C@H](N)C(=O)O; NH(2-ClPh) = Clc1ccccc1N*; X1 = CC[C@H](C)CCCCC(=O)*; dDab = NCC[C@@H](N)C(=O)O; Dab = NCC[C@H](N)C(=O)O; CO = O=C([*:1])[*:2]; ξDab = NCCC(N)C(=O)O
Assays:
E. coli [1] = experiment: MIC50 and MIC90, panel of Gram negative bacterial strains (CLSI broth microdilution); type: cell-based; parameters: key to E. coli MIC50 / E. coli MIC90: A: a measured MIC value equal to that of polymyxin B; a measured MIC value less than the corresponding MIC value measured for polymyxin B; a measured MIC value greater than the corresponding MIC value measured for polymyxin B; settings: class relative to polymyxin B; some strains multi-drug resistant
Description: (§1) The potency and spectrum of Compound 5 was studied using a panel of Gram negative bacterial strains.
(§2) MIC testing can be performed according to Clinical and Laboratory Standards Institute (CLSI) M7-A7 (2006) broth microdilution methods. Unless otherwise indicated, MIC values are provided in units of micrograms per milliliter.
(§3) One day prior to testing, individual colonies were isolated by streaking onto rich, non-selective Tryptic Soy agar with 5% lysed sheeps blood (TSAB) with incubation at 35-37° C. for 18-24 hours.
(§4) Cultures were prepared by touching 3-5 colonies into 3 mL of cation-adjusted Mueller Hinton Broth (caMHB) in a 14-mL tube (caMHB was prepared and sterilized according to manufacturer's specifications).
(§5) OD600 of growing cultures was measured and adjusted to approximately 10^5 colony forming units per mL (CFU/mL) in caMHB for MIC inoculation (approximately OD600 0.001).
(§6) Diluted cultures were used to inoculate 50 μL per well in broth microdilution assays (final volume 100 μl per well; compounds were prepared in two-fold dilutions).
(§7) Plates were incubated 16-20 hours at 37° C., with shaking at 200 rpm.
(§8) OD600 was determined for all wells. Growth was defined as OD600>0.1. MICs were defined as the lowest concentration producing no visible turbidity (OD600<0.1).

K. pneumoniae 933 = experiment: MIC against the primary screening panel (broth microdilution); type: cell-based; parameters: key: A: a MIC value measurement that is the same as that observed for polymyxin B; a MIC value measured that is lower than the comparable value observed for polymxin B; a MIC value measured that is higher than the comparable value observed for polymyxin B; settings: class relative to polymyxin B
Description: (§9) Antibacterial potency can be assessed by broth microdilution according to CLSI guidelines, plates can be incubated at 37° C., and aeration (rotation at 200 rpm) can be employed. In some assays, surfactant (Survanta, Abbott Laboratories) can be added to give a final concentration of 1, 10 and 40% in caMHB. Native polymyxin A, polymyxin B and the comparator compound of Formula II (polymyxin B decapeptide with an o-chlorophenyl urea tail) were included for comparison.

[2] = tested on: K. pneumoniae 1800 (PMX-resistant); experiment: as above; type: cell-based; parameters: key: A: a MIC value measurement that is the same as that observed for polymyxin B; a MIC value measured that is lower than the comparable value observed for polymxin B; a MIC value measured that is higher than the comparable value observed for polymyxin B; settings: class relative to polymyxin B
Description: as §9

P. aeruginosa 44 [3] = experiment: as above; type: cell-based; parameters: key: A: a MIC value measurement that is the same as that observed for polymyxin B; a MIC value measured that is lower than the comparable value observed for polymxin B; a MIC value measured that is higher than the comparable value observed for polymyxin B; settings: class relative to polymyxin B
Description: as §9

A. baumannii 1570 = experiment: as above; type: cell-based; parameters: key: A: a MIC value measurement that is the same as that observed for polymyxin B; a MIC value measured that is lower than the comparable value observed for polymxin B; a MIC value measured that is higher than the comparable value observed for polymyxin B; settings: class relative to polymyxin B
Description: as §9

K. pneu = experiment: MIC50 and MIC90, panel of Gram negative bacterial strains (CLSI broth microdilution); type: cell-based, K. pneumonia; parameters: key to K. pneu MIC50 / K. pneu MIC90: A: a measured MIC value equal to that of polymyxin B; a measured MIC value less than the corresponding MIC value measured for polymyxin B; a measured MIC value greater than the corresponding MIC value measured for polymyxin B; settings: class relative to polymyxin B; some strains multi-drug resistant
Description: as §1, §2, §3, §4, §5, §6, §7, §8

P. aeruginosa 44 [4] = experiment: Neutropenic mouse lung infection model; type: in vivo; settings: mouse lung model, 8 through 20 mg/kg dose levels
Description: Compound of Formula (Ia) was tested in a murine thigh model. For the thigh model, female CD-1 mice were rendered neutropenic by IP injection on days −4 and −1 with 150 and 100 mg/kg cyclophosphamide, respectively. On day 0 mice were infected with 1×10^7 colony-forming units (cfu) of A. baumannii 1570 in one thigh muscle, and then administered compound SC in a dose ranging from 2 to 12 mg/kg at 1 and 6 hours post-infection.
The mouse lung model was run in the same manner as the thigh infection model, except that mice were infected IN with 1×10^7 cfu of P. aeruginosa 44 on day 0. Doses administered in the lung study ranged from 8 to 20 mg/kg. The ED−3log10 was based on cfu determination from the lung tissue 24 hours post-infection.

P. aeru = experiment: MIC50 and MIC90, panel of Gram negative bacterial strains (CLSI broth microdilution); type: cell-based, P. Aeruginosa; parameters: key to P. aeru MIC50 / P. aeru MIC90: A: a measured MIC value equal to that of polymyxin B; a measured MIC value less than the corresponding MIC value measured for polymyxin B; a measured MIC value greater than the corresponding MIC value measured for polymyxin B; settings: class relative to polymyxin B, some strains multi-drug resistant
Description: as §1, §2, §3, §4, §5, §6, §7, §8

P. aeruginosa #44 = experiment: MICs for P. aeruginosa #44 in the presence of surfactant; type: cell-based; parameters: key: A: a MIC value measurement that is the same as that observed for polymyxin B; a MIC value measured that is lower than the comparable value observed for polymxin B; a MIC value measured that is higher than the comparable value observed for polymyxin B; settings: class relative to polymyxin B; for MIC P. aeruginosa #44, 10% surfactant: 10% surfactant (Survanta) in caMHB; for MIC P. aeruginosa #44, 40% surfactant: 40% surfactant (Survanta) in caMHB
Description: as §9

A. baum = experiment: MIC50 and MIC90, panel of Gram negative bacterial strains (CLSI broth microdilution); type: cell-based, A. baumanni; parameters: key to A. baum MIC50 / A. baum MIC90: A: a measured MIC value equal to that of polymyxin B; a measured MIC value less than the corresponding MIC value measured for polymyxin B; a measured MIC value greater than the corresponding MIC value measured for polymyxin B; settings: class relative to polymyxin B; some strains multi-drug resistant
Description: as §1, §2, §3, §4, §5, §6, §7, §8

K. pneumoniae = experiment: MIC50-90 against small panels (n = 35); type: cell-based; parameters: key: A: a MIC value measurement that is the same as that observed for polymyxin B; a MIC value measured that is lower than the comparable value observed for polymxin B; a MIC value measured that is higher than the comparable value observed for polymyxin B; settings: small panel n = 35; class relative to polymyxin B
Text: (§10) MIC's refer to the concentration of each antimicrobial agent required to inhibit the growth of a bacterial isolate, as well as the corresponding concentrations required to inhibit 50% and 90% of each group of microorganisms tested [MIC50 and MIC90, respectively, consistent with definitions in the “Instructions to Authors” for Antimicrobial Agents and Chemotherapy (Antimicrobial Agents and Chemotherapy, January 2010, p. 1-23, Vol. 54, No. 1, incorporated herein by reference)]. When only up to nine isolates of a species are tested, MIC's are reported as the MIC range of each antimicrobial agent tested. MIC values provided as numerical ranges for testing of a single bacterial strain indicate the range of MIC values obtained in repeated tests of the indicated bacteria strain.
as §9

E. coli [5] = experiment: MIC50-90 against small panels (n = 35); type: cell-based; parameters: key: A: a MIC value measurement that is the same as that observed for polymyxin B; a MIC value measured that is lower than the comparable value observed for polymxin B; a MIC value measured that is higher than the comparable value observed for polymyxin B; settings: small panel n = 35; class relative to polymyxin B
Text: as §10, §9

P. aeruginosa = experiment: MIC50-90 against small panels (n = 35); type: cell-based; parameters: key: A: a MIC value measurement that is the same as that observed for polymyxin B; a MIC value measured that is lower than the comparable value observed for polymxin B; a MIC value measured that is higher than the comparable value observed for polymyxin B; settings: small panel n = 35; class relative to polymyxin B
Text: as §10, §9

A. baumannii = experiment: MIC50-90 against small panels (n = 35); type: cell-based; parameters: key: A: a MIC value measurement that is the same as that observed for polymyxin B; a MIC value measured that is lower than the comparable value observed for polymxin B; a MIC value measured that is higher than the comparable value observed for polymyxin B; settings: small panel n = 35; class relative to polymyxin B
Text: as §10, §9

[6] = Acute toxicity testing in rats; type: in vivo, Sprague-Dawley rat; settings: IV dose of 1 mg/kg, similar experiment
Description: One female Sprague-Dawley rat was administered a 1 mg/kg dose of the test Compound 5. Clinical observations were taken immediately following the administration of compound and at 0.5, 1, 2 and 4 hours post-dose.

Structure (SMILES)	E. coli MIC50 (E. coli [1])	E. coli MIC90 (E. coli [1])	MIC K. pneumoniae 933 (K. pneumoniae 933)	MIC K. pneumoniae 1800 (PMX-resistant) [2]	MIC P. aeruginosa 44 (P. aeruginosa 44 [3])	MIC A. baumannii 1570 (A. baumannii 1570)	K. pneu MIC50 (K. pneu)	K. pneu MIC90 (K. pneu)	Lungs cleared within one log10 of limit of detection (P. aeruginosa 44 [4])	MIC P. aeruginosa #44, 0% surfactant (P. aeruginosa #44)	MIC P. aeruginosa #44, 10% surfactant (P. aeruginosa #44)	MIC P. aeruginosa #44, 40% surfactant (P. aeruginosa #44)	A. baum MIC50 (A. baum)	A. baum MIC90 (A. baum)	K. pneumoniae MIC50 (K. pneumoniae)	K. pneumoniae MIC90 (K. pneumoniae)	E. coli MIC50 (E. coli [5])	E. coli MIC90 (E. coli [5])	P. aeruginosa MIC50 (P. aeruginosa)	P. aeruginosa MIC90 (P. aeruginosa)	other results
CC(C)C[C@@H]1NC(=O)[C@@H](Cc2ccccc2)NC(=O)[C@H](CCN)NC(=O)C(NC(=O)[C@H](CCN)NC(=O)[C@@H](NC(=O)[C@H](CCN)NC(=O)Nc2ccccc2Cl)C(C)O)CCNC(=O)[C@H](C(C)O)NC(=O)[C@H](CCN)NC(=O)C(CCN)NC1=O (stereo partly shown) [Formula (II) comparator] ({NH(2-ClPh)-CO}-[Dab][Thr(3ξ)][Dab][ξDab][Dab][dF]L[ξDab][Dab][Thr(3ξ)]; lactam 4-C)	C	C	C	C	C	C	C	C	not seen	C	B	A	C	C	C	C	C	C	B	A	P. aeru MIC50 (P. aeru; listed as 2): B and A; P. aeru MIC90 (P. aeru; listed as 2): A and C; A. baumannii MIC50 (A. baumannii): C; A. baumannii MIC90 (A. baumannii): C
CC[C@H](C)CCCCC(=O)N[C@@H](CCN)C(=O)N[C@H](C(=O)N[C@H](CCN)C(=O)N[C@H]1CCNC(=O)[C@H]([C@@H](C)O)NC(=O)[C@H](CCN)NC(=O)[C@H](CCN)NC(=O)[C@H]([C@@H](C)O)NC(=O)[C@@H](CC(C)C)NC(=O)[C@H](CCN)NC1=O)[C@@H](C)O [Native Polymyxin A, Polymyxin A] (X1-[Dab]T[dDab][Dab][Dab][dL]T[Dab][Dab]T; lactam 4-C)	B	A	B	C	A	C	C	C	not observed	C	B	B	A	A	C	C	B	A	A	C	Clinical signs [6]: no clinical signs were observed; P. aeru MIC50 (P. aeru): A; P. aeru MIC90 (P. aeru): C; A. baumannii MIC50 (A. baumannii): A; A. baumannii MIC90 (A. baumannii): A
